Assay results published in patent publication US10239889B1, “Pentacyclic compound” (Eisai R&D Management Co., Ltd., priority 2017, dated 2019).

What was measured:
[1] = system: acetylcholine (ACh) in CSF; assay: Measurement of acetylcholine (ACh) in rat cerebrospinal fluid (CSF); type: in vivo; details: Fischer344 rat, oral 10 mg/kg once a day for three days, CSF 24 hours after administration, LC-MS
Protocol: Measurement of Acetylcholine (ACh) in Rat Cerebrospinal Fluid (CSF)
Thus, the changes in acetylcholine in CSF were measured in order to determine the changes in intracerebral acetylcholine by the test compounds.
(§1) (2) Compound Administration
In this study, Fischer344 male rats (Charles River Laboratories Japan, Inc.) with a body weight of about 150 to 250 g were used. The test compounds were orally administered to the rats once a day at 10 mg/kg for three days. The vehicle used was 0.01 mol/L hydrochloric acid.
At 24 hours after the administration of the vehicle and the test compounds, the CSF was collected from cistema magna in a tube containing AchE inhibitors under pentobarbital anesthesia. The collected CSF was centrifuged at 3500×g at 4° C. for 10 minutes and the supernatant was collected. The collected supernatant was frozen with liquid nitrogen, and then stored at −80° C.
(4) Measurement of Ach by LC-MS
To 10 μL of the CSF was added 50 μL of acetylcholine-d9 chloride (ACh-d9) at a final concentration of 0.34 nmol/L as an internal standard. […] The supernatant was collected and subjected to LC/MS […], and Ach was detected as precursor ion at m/z 146.050 and as product ion at m/z 87.071 and ACh-d9 as an internal standard was detected as precursor ion at m/z 155.088 and as product ion at m/z 87.000. […]

[2] = system: cholinergic neurons, fimbria-fornix lesioned rat model; assay: Neuroprotective and restorative effect on cholinergic neurons using fimbria-fornix lesioned rat model (ChAT positive cells, hippocampal VAChT); type: in vivo; details: % of sham-operated group, mean±SEM; for OD in hippocampal VAChT (%) in test compound administration group: hippocampus; for Number of ChAT positive cells (%) in test compound administration group: medial septal area
Protocol: Neuroprotective and Restorative Effect on Cholinergic Neurons Usi Ng Fimbria-Fomix Lesioned Rat Model
(1) Preparation of Fimbria-Fomix Lesioned Rat Model
In this study, Sprague-Dawley male rats (Charles River Laboratories Japan, Inc.) with a body weight of about 250 to 350 g were used. The rat was anesthetized under the combination of three drugs: midazolam (2 mg/kg s.c.), medetomidine hydrochloride (0.15 mg/kg s.c.) and butorphanol tartrate (2.5 mg/kg s.c.) and fixed with a brain stereotaxis apparatus (Narishige Co., Ltd.). The cranial was exposed and a hole with 5 mm width was drilled in the skull from the median line 2 mm posterior to Bregma. A razor with 4 mm width was pierced into the Bregma in 5.5 mm depth to cut fimbria-fornmix. After hemostasis, the scalp was sutured. After the operation, the rat was brought back to the cage and recovered from the anesthesia. In the sham-operated group, a hole with 5 mm width was drilled in the skull from the median line 2 mm posterior to Bregma, but no razor was pierced.
as §1
The test compounds were orally administered to the rats once a day from five days to nine days after the operation (Example 1: 10 mg/kg) or from seven days to fourteen days after the operation (Example 3: 3 mg/kg). The vehicle used was 0.01 mol/L hydrochloric acid. In the sham-operated group, the vehicle was orally administered once a day similarly to the test compound administration group.
The rats were anesthetized under pentobarbital and transcardially perfused with ice-cold PBS. After the perfusion, the forebrain including the medial septal area was collected and immersed and shaken overnight with 4% paraformaldehyde. The immersion solution was replaced with 7.5% sucrose solution. It was immersed and shaken overnight in 7.5% sucrose solution, and the immersion solution was replaced with 15% sucrose solution and it was immersed and shaken overnight. The immersion solution was replaced with 30% sucrose solution and it was immersed and shaken overnight. […]
The prepared brain coronal frozen sections were stained with DAB (DAB PEROXIDASE SUBSTRATE KIT (Vector, SK-4100)) using a ChAT antibody (Santa Cruz, S.C.-20672) or a VAChT antibody (Merck Millipore, ABN100) as a primary antibody. The section image including the medial septal area or hippocampus as shown in “The mouse Brain in stereotaxic coordinates” (COMPACT THIRD EDITION, Keith B.J. Franklin & George Paxinos) was taken by an all-in-one fluorescence microscope (KEYENCE, BZ-X710) and ChAT positive cells of the medial septal area or optical density (OD) in hippocampal VAChT were measured by BZ analysis software (KEYENCE). […] Data are expressed as the mean±SEM. The differences between the vehicle-treated group and compound-treated (significant: #) was analyzed by unpaired t-test. […]

[3] = oral 10 mg/kg once a day from five to nine days after operation
[4] = oral 3 mg/kg once a day from seven to fourteen days after operation

SMILES | Amount (%) increased with respect to from the amount of ACh in CSF the vehicle administration group [1] [%] | OD in hippocampal VAChT (%) in test compound administration group [2, 3] | Number of ChAT positive cells (%) in test compound administration group [2, 3] [%] | OD in hippocampal VAChT (%) in test compound administration group [2, 4] | Number of ChAT positive cells (%) in test compound administration group [2, 4]
CN1CCc2c(sc3nc4n(c(=O)c23)-c2ccc(F)cc2C(=O)N(C)C4)C1 [Example 1] | 160.0 | 77.1 ± 14.6^# % | 79.1 ± 15.7 | – | –
CN1CCc2c(sc3nc4n(c(=O)c23)-c2sccc2C(=O)N(C)C4)C1 [Example 3, 5,10-dimethyl-5,6,9,10,11,12-hexahydropyrido[4″,3″:4′,5′]thieno[2′,3′:4,5]pyrimido[1,2-a]thieno[3,2-f][1,4]diazepine-4,13-dione] | 156.8 | – | – | 66.1 ± 14.2^# % | 74.1 ± 9.3^# %
